Patent publication US6989389B2, “Aryl ether substituted imidazoquinolines” (3M Innovative Properties Co., priority 2000, dated 2006)
Where two headings read alike, the source gives them in different places.

What was measured:
[1] = tested on: Peripheral blood mononuclear cells (PBMC); assay: Cytokine Induction in Human Cells (in vitro human blood cell system, IFN and TNF secreted into culture media); assay type: cell-based; set-up: key to Lowest Effective Concentration (μM) Tumor Necrosis Factor / Lowest Effective Concentration (μM) Interferon: *: no induction was seen at any of the tested concentrations; settings: 18 to 24 hours, tested 30-0.014 μM
Outline: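 Human donor PBMC (2×10^6 cells/mL, RPMI complete) incubated 18–24 h at 37 °C, 5% CO2 with compound, 3-fold dilutions 30–0.014 μM, ≤1% DMSO. IFN-α measured by ELISA, TNF-α by ELISA or IGEN immunoassay in supernatants (pg/mL). Value is lowest concentration inducing each cytokine.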

[2] = lowest concentration found to induce interferon (α), ELISA, read-out: Lowest Effective Concentration (μM) Interferon
[3] = Homo sapiens, PBMC, lowest concentration found to induce interferon (α), ELISA, read-out: Lowest Effective Concentration (μM) Interferon
[4] = Homo sapiens, PBMC, lowest concentration found to induce tumor necrosis factor (α), ELISA or IGEN assay, read-out: Lowest Effective Concentration (μM) Tumor Necrosis Factor
[5] = lowest concentration found to induce interferon (α), ELISA
[6] = lowest concentration found to induce tumor necrosis factor (α), ELISA or IGEN assay

CCC(COCc1ccc(C#N)cc1)n1cnc2c(N)nc3ccccc3c21 (stereo not drawn) [Example 141, 4-{[2-(4-Amino-1H-imidazo[4,5-c]quinolin-1-yl)butoxy]methyl}benzonitrile]
minimal effective concentration [1, 2]: 0.12 µM
minimal effective concentration ([1]; lowest concentration found to induce tumor necrosis factor (α), ELISA or IGEN assay, read-out: Lowest Effective Concentration (μM) Tumor Necrosis Factor): 0.12 µM
melting point: 160 to 161 °C

Nc1nc2ccccc2c2c1ncn2CCOCC#Cc1ccccc1 [Example 3, 1-{2-[(3-Phenyl-2-propynyl)oxy]ethyl}-1H-imidazo[4,5-c]quinolin-4-amine]
minimal effective concentration [1, 3]: 0.12 µM
minimal effective concentration [1, 4]: 3.33 µM
melting point: 196 to 197 °C

COCCc1nc2c(N)nc3ccccc3c2n1CCOCCCc1ccccc1 [Example 121, 2-(2-Methoxyethyl)-1-[2-(3-phenylpropoxy)ethyl]-1H-imidazo[4,5-c]quinolin-4-amine]
minimal effective concentration [1, 3]: 0.01 µM
minimal effective concentration [1, 4]: 0.04 µM
melting point: 103.8 to 104.5 °C

Nc1nc2ccccc2c2c1nc(C1CCCC1)n2CCOc1ccccc1 [Example 135, 2-Cyclopentyl-1-(2-phenoxyethyl)-1H-imidazo[4,5-c]quinolin-4-amine]
Lowest Effective Concentration (μM) Interferon [1, 5]: *
Lowest Effective Concentration (μM) Tumor Necrosis Factor [1, 6]: *
melting point: 216 to 217.9 °C

Nc1nc2ccccc2c2c1ncn2CCOCC#Cc1ccccc1C(F)(F)F [Example 10, 1-[2-({3-[2-(Trifluoromethyl)phenyl]-2-propynyl}oxy)ethyl]-1H-imidazo[4,5-c]quinolin-4-amine]
minimal effective concentration [1, 3]: 1.11 µM
minimal effective concentration [1, 4]: 10 µM
melting point: 154 to 155 °C

C#CCOCCn1cnc2c(N)nc3ccccc3c21 [Example 1, 1-[2-(2-Propynyloxy)ethyl]-1H-imidazo[4,5-c]quinolin-4-amine]
minimal effective concentration [1, 3]: 0.12 µM
minimal effective concentration [1, 4]: 1.11 µM
melting point: 225 to 227 °C

CNS(=O)(=O)c1ccc(C)c(CCCOCCn2cnc3c(N)nc4ccccc4c32)c1 [Example 6, N^1,4-Dimethyl-3-{3-[2-(4-amino-1H-imidazo[4,5-c]quinolin-1-yl)ethoxy]propyl}-1-benzensulfonamide]
minimal effective concentration [1, 3]: 0.12 µM
Lowest Effective Concentration (μM) Tumor Necrosis Factor [1, 6]: *
melting point: 207 to 209 °C

Cc1nc2c(N)nc3ccccc3c2n1CCCCOCC#Cc1ccccc1 [Example 149, 2-Methyl-1-{4-[(3-phenylprop-2-ynyl)oxy]butyl}-1H-imidazo[4,5-c]quinolin-4-amine]
minimal effective concentration [1, 3]: 0.041 µM
minimal effective concentration [1, 4]: 0.37 µM
melting point: 109.2 to 110 °C

Cc1ccc(C#CCOCCn2cnc3c(N)nc4ccccc4c32)cc1C [Example 23, 1-(2-{[3-(3,4-Dimethylphenyl)-2-propynyl]oxy}ethyl]-1H-imidazo[4,5-c]quinolin-4-amine]
minimal effective concentration [1, 3]: 1.11 µM
Lowest Effective Concentration (μM) Tumor Necrosis Factor [1, 6]: *
melting point: 214 to 216 °C

Nc1nc2ccccc2c2c1ncn2CCOCC#Cc1ccc(Oc2ccccc2)cc1 [Example 9, 1-(2-{[3-(4-Phenoxyphenyl)-2-propynyl]oxy}ethyl)-1H-imidazo[4,5-c]quinolin-4-amine]
Lowest Effective Concentration (μM) Interferon [1, 5]: *
Lowest Effective Concentration (μM) Tumor Necrosis Factor [1, 6]: *
melting point: 146 to 148 °C

COc1ccc(CCCOCCn2cnc3c(N)nc4ccccc4c32)cc1 [Example 5, 1-{2-[3-(4-Methoxyphenyl)propoxy]ethyl}-1H-imidazo[4,5-c]quinolin-4-amine]
minimal effective concentration [1, 3]: 0.12 µM
minimal effective concentration [1, 4]: 1.11 µM
melting point: 116 to 118 °C

CC(C)Cc1nc2c(N)nc3ccccc3c2n1CCOc1ccccc1 [Example 130, 2-Isobutyl-1-(2-phenoxyethyl)-1H-imidazo[4,5-c]quinolin-4-amine]
minimal effective concentration [1, 3]: 3.33 µM
minimal effective concentration [1, 4]: 3.33 µM
melting point: 176.6 to 177.8 °C

CCCCc1nc2c(N)nc3ccccc3c2n1CCOc1ccccc1 [Example 132, 2-Butyl-1-(2-phenoxyethyl)-1H-imidazo[4,5-c]quinolin-4-amine]
minimal effective concentration [1, 3]: 0.01 µM
minimal effective concentration [1, 4]: 3.33 µM
melting point: 168.3 to 169.5 °C

N#Cc1ccc(COCCn2cnc3c(N)nc4ccccc4c32)cc1 [Example 19, 4-{[2-(4-Amino-1H-imidazo[4,5-c]quinolin-1-yl)ethoxy]methyl}benzonitrile]
minimal effective concentration [1, 3]: 0.37 µM
Lowest Effective Concentration (μM) Tumor Necrosis Factor [1, 6]: *
melting point: 238.1 to 239.2 °C

Cl.Nc1nc2ccccc2c2c1ncn2CCOCC#Cc1ccccc1 [Example 4, 1-{2-[(3-Phenyl-2-propynyl)oxy]ethyl}-1H-imidazo[4,5-c]quinolin-4-amine Hydrochloride]
minimal effective concentration [1, 2]: 0.12 µM
Lowest Effective Concentration (μM) Tumor Necrosis Factor [1, 6]: *
melting point: 231 to 236 °C

CC(C)c1nc2c(N)nc3ccccc3c2n1CCOc1ccccc1 [Example 131, 2-Isopropyl-1-(2-phenoxyethyl)-1H-imidazo[4,5-c]quinolin-4-amine]
minimal effective concentration [1, 4]: 10 µM
Lowest Effective Concentration (μM) Interferon [1, 5]: *
melting point: 229 to 231 °C

COc1ccc(Cc2nc3c(N)nc4ccccc4c3n2CCOc2ccccc2)cc1 [Example 134, 2-(4-Methoxybenzyl)-1-(2-phenoxyethyl)-1H-imidazo[4,5-c]quinolin-4-amine]
Lowest Effective Concentration (μM) Interferon [1, 5]: *
Lowest Effective Concentration (μM) Tumor Necrosis Factor [1, 6]: *
melting point: 201 to 203.6 °C

Nc1nc2ccccc2c2c1nc(COc1ccccc1)n2CCOc1ccccc1 [Example 133, 1-(2-Phenoxyethyl)-2-(phenoxymethyl)-1H-imidazo[4,5-c]quinolin-4-amine]
minimal effective concentration [1, 3]: 3.33 µM
Lowest Effective Concentration (μM) Tumor Necrosis Factor [1, 6]: *
melting point: 168.5 to 170 °C

CCCCCCCCc1nc2c(N)nc3ccccc3c2n1CCOCC#Cc1ccccc1 [Example 116, 2-Octyl-1-{2-[(3-phenylprop-2-ynyl)oxy]ethyl}-1H-imidazo[4,5-c]quinolin-4-amine]
Lowest Effective Concentration (μM) Interferon [1, 5]: *
Lowest Effective Concentration (μM) Tumor Necrosis Factor [1, 6]: *
melting point: 138 to 138.7 °C

Nc1nc2ccccc2c2c1nc(-c1ccccc1)n2CCOc1ccccc1 [Example 140, 1-(2-Phenoxyethyl)-2-phenyl-1H-imidazo[4,5-c]quinolin-4-amine]
Lowest Effective Concentration (μM) Interferon [1, 5]: *
Lowest Effective Concentration (μM) Tumor Necrosis Factor [1, 6]: *
melting point: 182.5 to 184.6 °C

CCOCc1nc2c(N)nc3ccccc3c2n1CCOCC#Cc1ccccc1 [Example 122, 2-(Ethoxymethyl)-1-{2-[(3-phenylprop-2-ynyl)oxy]ethyl}-1H-imidazo[4,5-c]quinolin-4-amine]
minimal effective concentration [1, 3]: 0.01 µM
minimal effective concentration [1, 4]: 0.12 µM
melting point: 110.8 to 111.7 °C

Cc1nc2c(N)nc3ccccc3c2n1CCCOCC#Cc1ccccc1 [Example 147, 2-Methyl-1-{3-[(3-phenylprop-2-ynyl)oxy]propyl}-H-imidazo[4,5-c]quinolin-4-amine]
minimal effective concentration [1, 3]: 0.37 µM
minimal effective concentration [1, 4]: 0.37 µM
melting point: 160 to 161.6 °C

CCCCc1nc2c(N)nc3ccccc3c2n1CCOCc1ccccc1 [Example 126, 1-[2-(Benzyloxy)ethyl]-2-butyl-1H-imidazo[4,5-c]quinolin-4-amine]
minimal effective concentration [1, 3]: 0.04 µM
minimal effective concentration [1, 4]: 0.04 µM
melting point: 133 to 135 °C

Nc1nc2ccccc2c2c1ncn2CCOC/C=C/c1ccccc1 [Example 115, 1-(2-{[(2E)-3-Phenylprop-2-enyl]oxy}ethyl)-1H-imidazo[4,5-c]quinolin-4-amine]
minimal effective concentration [1, 3]: 0.12 µM
minimal effective concentration [1, 4]: 1.11 µM
melting point: 183.7 to 184.3 °C

CCCCc1nc2c(N)nc3ccccc3c2n1CCOCC#Cc1ccccc1 [Example 123, 2-Butyl-1-{2-[(3-phenylprop-2-ynyl)oxy]ethyl}-1H-imidazo[4,5-c]quinolin-4-amine]
minimal effective concentration [1, 3]: 0.12 µM
minimal effective concentration [1, 4]: 10 µM
melting point: 133 to 140 °C

Cc1nc2c(N)nc3ccccc3c2n1CCCOCCCc1ccccc1 [Example 148, 2-Methyl-1-[3-(3-phenylpropoxy)propyl]-1H-imidazo[4,5-c]quinolin-4-amine]
minimal effective concentration [1, 3]: 1.11 µM
minimal effective concentration [1, 4]: 1.11 µM
melting point: 145 to 146.1 °C

Cc1nc2c(N)nc3ccccc3c2n1CCCCOCCCc1ccccc1 [Example 150, 2-Methyl-1 [4-(3-phenylpropoxy)butyl]-1H-imidazo[4,5-c]quinolin-4-amine]
minimal effective concentration [1, 3]: 0.37 µM
minimal effective concentration [1, 4]: 1.11 µM
melting point: 105.1 to 106 °C

CCCCc1nc2c(N)nc3ccccc3c2n1CCOCCCc1ccccc1 [Example 124, 2-Butyl-1-[2-(3-phenylpropoxy)ethyl]-1H-imidazo[4,5-c]quinolin-4-amine]
minimal effective concentration [1, 3]: 1.11 µM
minimal effective concentration [1, 4]: 10 µM
melting point: 80.8 to 81.3 °C

Cc1nc2c(N)nc3ccccc3c2n1CCOCCCc1ccccc1 [Example 119, 2-Methyl-1-[2-(3-phenylpropoxy)ethyl]-1H-imidazo[4,5-c]quinolin-4-amine]
minimal effective concentration [1, 3]: 0.01 µM
minimal effective concentration [1, 4]: 0.12 µM
melting point: 129.7 to 130.7 °C
